Laboratory results published in paper PMC11808136, “Screening and identification of host signaling pathways for alleviating influenza-induced production of pro-inflammatory cytokines, IP-10, IL-8, and MCP-1, using a U937 cell-based influenza model” (Frontiers in Microbiology, 2025).
Read-outs that look alike come from different tables or passages of the source.

Assays:
[1] = tested on: IL-8 production in influenza virus-infected U937 cells (H1N1); experiment: cells; format: cell-based, Human; conditions: for EC50: read-out: EC50 IL-8
[2] = tested on: IP-10 production in influenza virus-infected U937 cells (H1N1); experiment: cells; format: cell-based
[3] = tested on: MCP-1 production in influenza virus-infected U937 cells (H1N1); experiment: cells; format: cell-based
[4] = tested on: IL-8 production in influenza virus-infected U937 cells (H3N2); experiment: cells; format: cell-based, Human
[5] = tested on: IP-10 production in influenza virus-infected U937 cells (H3N2); experiment: cells; format: cell-based, Human
[6] = tested on: MCP-1 production in influenza virus-infected U937 cells (H3N2); experiment: cells; format: cell-based, Human
[7] = tested on: IL-8 production in influenza virus-infected U937 cells (H7N8); experiment: cells; format: cell-based, Human
[8] = tested on: IP-10 production in influenza virus-infected U937 cells (H7N8); experiment: cells; format: cell-based, Human
[9] = tested on: MCP-1 production in influenza virus-infected U937 cells (H7N8); experiment: cells; format: cell-based, Human
JAK2 = target: T1, JAK2 (Homo sapiens, UniProt O60674); experiment: Cell-free kinase activity assay, JAK2; format: biochemical
T1 construct: purchased KinaseProfiler (Eurofin, Brussels, Belgium)
T1 sequence (O60674 whole entry): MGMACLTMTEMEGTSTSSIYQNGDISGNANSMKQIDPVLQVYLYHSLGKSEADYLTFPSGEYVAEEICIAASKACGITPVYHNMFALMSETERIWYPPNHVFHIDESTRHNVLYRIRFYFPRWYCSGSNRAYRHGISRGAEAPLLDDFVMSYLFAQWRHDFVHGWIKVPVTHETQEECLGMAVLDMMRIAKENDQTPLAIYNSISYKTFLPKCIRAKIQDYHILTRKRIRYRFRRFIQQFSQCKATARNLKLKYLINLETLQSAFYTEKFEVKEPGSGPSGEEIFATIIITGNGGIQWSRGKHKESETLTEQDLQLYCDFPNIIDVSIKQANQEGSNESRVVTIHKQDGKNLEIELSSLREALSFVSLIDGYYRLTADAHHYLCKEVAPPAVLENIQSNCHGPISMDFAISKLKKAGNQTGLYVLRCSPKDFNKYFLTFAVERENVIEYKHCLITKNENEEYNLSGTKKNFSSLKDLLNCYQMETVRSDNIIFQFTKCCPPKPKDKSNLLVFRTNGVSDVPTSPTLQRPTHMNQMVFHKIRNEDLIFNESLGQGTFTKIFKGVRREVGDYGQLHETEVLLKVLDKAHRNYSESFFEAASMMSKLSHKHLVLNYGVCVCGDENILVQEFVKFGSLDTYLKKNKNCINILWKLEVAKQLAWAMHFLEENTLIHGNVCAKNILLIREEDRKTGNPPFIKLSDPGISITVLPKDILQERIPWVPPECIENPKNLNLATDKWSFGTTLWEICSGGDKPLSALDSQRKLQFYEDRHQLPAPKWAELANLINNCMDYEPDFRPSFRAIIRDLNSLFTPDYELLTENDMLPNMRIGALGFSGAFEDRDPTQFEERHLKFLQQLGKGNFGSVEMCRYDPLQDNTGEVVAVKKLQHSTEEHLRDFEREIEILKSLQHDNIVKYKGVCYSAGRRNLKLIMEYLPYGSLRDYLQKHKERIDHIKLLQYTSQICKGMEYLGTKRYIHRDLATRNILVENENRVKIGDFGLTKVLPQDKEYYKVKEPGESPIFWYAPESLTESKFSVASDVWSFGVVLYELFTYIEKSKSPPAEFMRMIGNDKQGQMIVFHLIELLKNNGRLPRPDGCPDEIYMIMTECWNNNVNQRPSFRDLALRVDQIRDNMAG

p38 = p38 (Homo sapiens, UniProt Q16539); experiment: Cell-free kinase activity assay, p38; format: biochemical; conditions: for p38 kinase activity in vitro: cell-free; for IC50: p38 kinases in vitro
p38, sequence (Q16539 whole entry): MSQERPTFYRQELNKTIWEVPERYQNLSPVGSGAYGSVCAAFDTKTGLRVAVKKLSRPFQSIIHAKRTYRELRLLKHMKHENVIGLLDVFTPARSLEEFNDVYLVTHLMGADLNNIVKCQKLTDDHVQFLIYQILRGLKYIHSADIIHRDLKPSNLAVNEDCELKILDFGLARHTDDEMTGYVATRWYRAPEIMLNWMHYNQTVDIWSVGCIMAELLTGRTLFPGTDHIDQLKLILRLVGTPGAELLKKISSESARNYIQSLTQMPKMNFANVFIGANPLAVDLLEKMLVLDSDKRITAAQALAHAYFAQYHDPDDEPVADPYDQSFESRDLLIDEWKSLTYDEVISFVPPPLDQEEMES

[10] = tested on: phosphorylation of p38 (p-p38); experiment: Western blot of phosphorylated p38 in influenza-infected U937 cells; format: cell-based, Human; conditions: for phosphorylation of p38: 24 h post-infection, western blot, cellular model
Description: (§1) Figure 6 TKIs repress cytokine production by suppressing the p38 pathway. […] Cells were lysed 24 h post-infection, and the levels of phosphorylated p38 and ERK (p-p38 and p-ERK) and total p38 and ERK were assessed by western blot. A quantification of phosphorylated p38 levels for each drug treatment was included in the right panel of each figure.
(§2) Cells were homogenized in RIPA lysis buffer containing a 1% protease inhibitor cocktail (Roche) to extract total protein. Equal amounts of protein homogenates were separated by SDS-PAGE (Bio-Rad) and transferred onto polyvinylidene difluoride membranes (pore size […]; Bio-Rad). The membranes were then blotted with monoclonal antibodies against GAPDH (1:1000, ZSGB-BIO), p38, phosphor-p38, ERK, phospho-ERK, STAT1, phosphor-STAT1 (1:1000; Cell Signaling Technology), STAT3, and phosphor-STAT3 (1:1000; Cell Signaling Technology), respectively. Protein levels were detected with horseradish peroxidase-tagged secondary antibodies and enhanced chemiluminescence western blot reagents (Advansta), followed by visualization using an enhanced chemiluminescence system (AlphaEase FluorChem System, Alpha Innotech Corp.). Bands were quantified using ImageJ (Ver. 1.46; NIH, Bethesda, MD).

[11] = tested on: STAT1 phosphorylation (p-STAT1); format: cell-based, Human
in vitro = conditions: human
JAK1 = JAK1 (Homo sapiens, UniProt P23458); experiment: Cell-free kinase activity assay, JAK1
JAK1, sequence (P23458 whole entry): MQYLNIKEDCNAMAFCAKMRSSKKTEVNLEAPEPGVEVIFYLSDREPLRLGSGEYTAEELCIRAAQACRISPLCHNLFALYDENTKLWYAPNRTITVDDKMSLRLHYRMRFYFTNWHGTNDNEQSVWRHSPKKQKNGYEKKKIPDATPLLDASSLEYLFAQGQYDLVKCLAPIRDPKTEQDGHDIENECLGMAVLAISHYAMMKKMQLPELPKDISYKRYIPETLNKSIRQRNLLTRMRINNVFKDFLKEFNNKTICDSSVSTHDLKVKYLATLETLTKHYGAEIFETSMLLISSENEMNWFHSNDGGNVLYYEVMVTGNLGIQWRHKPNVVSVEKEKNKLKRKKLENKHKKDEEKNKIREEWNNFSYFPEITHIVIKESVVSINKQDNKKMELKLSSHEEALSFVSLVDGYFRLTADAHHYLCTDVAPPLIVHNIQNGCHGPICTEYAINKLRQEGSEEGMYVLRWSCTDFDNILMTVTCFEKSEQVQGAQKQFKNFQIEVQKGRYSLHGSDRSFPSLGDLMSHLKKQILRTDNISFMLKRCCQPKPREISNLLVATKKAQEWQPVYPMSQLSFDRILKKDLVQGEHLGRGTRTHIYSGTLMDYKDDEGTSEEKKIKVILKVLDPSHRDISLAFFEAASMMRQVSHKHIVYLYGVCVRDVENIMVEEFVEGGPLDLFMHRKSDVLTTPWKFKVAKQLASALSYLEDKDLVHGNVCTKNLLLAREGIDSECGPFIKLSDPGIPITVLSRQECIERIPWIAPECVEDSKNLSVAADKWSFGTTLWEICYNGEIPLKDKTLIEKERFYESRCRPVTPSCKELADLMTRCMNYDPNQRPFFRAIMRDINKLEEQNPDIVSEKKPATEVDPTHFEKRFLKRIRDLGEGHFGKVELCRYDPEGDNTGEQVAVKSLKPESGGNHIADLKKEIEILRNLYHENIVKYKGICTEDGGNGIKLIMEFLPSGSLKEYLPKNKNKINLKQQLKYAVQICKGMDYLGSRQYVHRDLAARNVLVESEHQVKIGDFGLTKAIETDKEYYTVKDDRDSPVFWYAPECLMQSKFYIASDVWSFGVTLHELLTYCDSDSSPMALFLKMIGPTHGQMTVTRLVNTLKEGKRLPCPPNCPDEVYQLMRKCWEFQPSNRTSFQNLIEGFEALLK

[12] = tested on: ERK phosphorylation (p-ERK); experiment: Western blot of phosphorylated ERK in influenza-infected U937 cells; format: cell-based, Human
Description: Figure 5 Raf/MEK/ERK and p38 signal pathways are involved in the regulation of cytokines in U937 cells. (A–C) Determination of inhibition rates on IL-8, IP-10, and MCP-1 by each compound in the MAPK group and the distribution of targets between subgroups. U937 cells were infected with influenza A/PuertoRico/8/1934 virus (MOI = 0.1) in the presence of 10 μM of each inhibitor and then incubated at 37°C for 48 h. The distribution of the targets of all the inhibitors in the MAPK group was then analyzed and categorized into subgroups. […] The supernatants were harvested 48 h post-infection, and the levels of IL-8, MCP-1, and IP-10 were measured by AlphaLISA. (E) The cells were treated as in (C) except being lysed 24 h post-infection, and the levels of phosphorylated STAT1, p38, ERK (p-STAT1, p-p38, p-ERK), total STAT1, p38, ERK, and viral protein HA were assessed by western blot. (F) A quantitative analysis of the relative levels of the phosphorylated STAT1, p38, ERK (p-STAT1, p-p38, p-ERK) in (E). The data are representative of at least three independent experiments. n.s. no significance; *p < 0.05; **p < 0.01; ***p < 0.001.
as §1
as §2, with “The membranes were then blotted with monoclonal antibodies against GAPDH (1:1000, ZSGB-BIO), p38, phosphor-p38, ERK, phospho-ERK, STAT1, phosphor-STAT1 (1:1000; Cell Signaling Technology), STAT3, and phosphor-STAT3 (1:1000; Cell Signaling Technology), respectively.” left out

[13] = Homo sapiens, U-937, secondary screen, Supplemental Table 1
[14] = Homo sapiens, U-937, read-out: EC50 IP-10
[15] = Homo sapiens, U-937, read-out: EC50 IL-8
[16] = Homo sapiens, U-937, read-out: EC50 MCP-1
[17] = Homo sapiens, U-937, read-out: IC50 p-p38
[18] = U937 cells, Table 1 section H1N1

## Cc1cc(Nc2nc(N[C@@H](C)c3ncc(F)cn3)ncc2Cl)n[nH]1 [AZD1480]
[1]; Homo sapiens, U-937
  IC50: 7500 nM
  EC50: 7690 nM
[1]; [13]
  EC50: 110 nM
[2]; [14]
  EC50: 100 nM
[2]; Homo sapiens, U-937, read-out: IC50 IP-10
  IC50: 7110 nM
[2]; Homo sapiens, U-937; read-out: EC50 IP-10
  EC50: 7690 nM
[3]; Homo sapiens, U-937, read-out: EC50 MCP-1, U937 cells infected with H1N1
  EC50: 6250 nM
[3]; Homo sapiens, U-937, read-out: EC50 MCP-1, secondary screen, Supplemental Table 1
  EC50: 30 nM
[3]; Homo sapiens, U-937, read-out: IC50 MCP-1
  IC50: 6300 nM
[4]; Homo sapiens, U-937
  EC50: 7140 nM
[5]; Homo sapiens, U-937
  EC50: 17 nM
[6]; Homo sapiens, U-937
  EC50: 478 nM
[7]; [15]
  EC50: 215 nM
[8]; [14]
  EC50: 57 nM
[9]; [16]
  EC50: 714 nM
JAK2; cell-free kinase assay
  JAK2 activity: inhibited
p38
  p38 kinase activity in vitro: failed to inhibit
  IC50: > 100000 nM
[10]
  phosphorylation of p38: suppress
[10]; [17]
  IC50: 5300 nM
[11]
  STAT1 phosphorylation levels: significantly reduced
U937 cells; human
  maximum non-toxic concentration: 50 µM
In vitro
  CC50 at 48 h: 100000 nM
In vitro; CC50, secondary screen, Supplemental Table 1
  CC50: 13500 nM
JAK1
  IC50: 430 nM
JAK1; cell-free kinase assay
  JAK1 activity: inhibited

## CCS(=O)(=O)N1CC(CC#N)(n2cc(-c3ncnc4[nH]ccc34)cn2)C1 [Baricitinib]
JAK2
  JAK2 activity: inhibited
p38
  p38 kinase activity in vitro: failed to inhibit
  IC50: > 1000 nM
[10]
  phosphorylation of p38: suppress
In vitro
  CC50 at 48 h: 5380 nM
In vitro; CC50
  CC50: > 100000 nM

## Cc1nc(Nc2ncc(C(=O)Nc3c(C)cccc3Cl)s2)cc(N2CCN(CCO)CC2)n1 [Dasatinib]
[1]; Homo sapiens, U-937
  IC50: 1900 nM
  EC50: 1890 nM
[1]; [13]
  EC50: 2060 nM
[2]; Homo sapiens, U-937, U937 cells infected with H1N1; read-out: EC50 IP-10
  EC50: 1160 nM
[2]; Homo sapiens, U-937, secondary screen, Supplemental Table 1; read-out: EC50 IP-10
  EC50: 1300 nM
[3]; Homo sapiens, U-937, U937 cells infected with H1N1, read-out: EC50 MCP-1
  EC50: 190 nM
[3]; Homo sapiens, U-937, secondary screen, Supplemental Table 1, read-out: EC50 MCP-1
  EC50: 140 nM
[3]; Homo sapiens, U-937, production of MCP-1 in U937 cells infected with influenza virus, Table 4, read-out: IC50 MCP-1
  IC50: 190 nM
[4]; Homo sapiens, U-937
  EC50: 730 nM
[5]; Homo sapiens, U-937
  EC50: 17 nM
[6]; Homo sapiens, U-937
  EC50: 18 nM
[7]; [15]
  EC50: 135 nM
[8]; [14]
  EC50: 14 nM
[9]; [16]
  EC50: 44 nM
[10]; [17]
  IC50: 1000 nM
[11]
  STAT1 phosphorylation levels: significantly reduced
U937 cells; [18]
  CC50: > 100000 nM
U937 cells; human
  maximum non-toxic concentration: 1 µM
In vitro
  CC50: > 100000 nM
  CC50 at 48 h: > 100000 nM

## Cc1ccc(Nc2ncc3c(n2)N(C)C(=O)N(c2cc(NC(=O)c4cccc(C(F)(F)F)c4)ccc2C)C3)cn1 [GNF-7]
[1]
  IC50: < 20 nM
  EC50: 19 nM
[1]; secondary screen, Supplemental Table 1
  EC50: < 5 nM
[2]; U937 cells infected with H1N1; read-out: EC50 IP-10
  EC50: 71 nM
[2]; secondary screen, Supplemental Table 1; read-out: EC50 IP-10
  EC50: 20 nM
[3]; U937 cells infected with H1N1, read-out: EC50 MCP-1
  EC50: 18 nM
[3]; production of MCP-1 in U937 cells infected with influenza virus, Table 4, read-out: IC50 MCP-1
  IC50: < 20 nM
[3]; secondary screen, Supplemental Table 1, read-out: EC50 MCP-1
  EC50: 10 nM
[4]
  EC50: 27 nM
[5]
  EC50: 1 nM
[6]
  EC50: 14 nM
[7]; read-out: EC50 IL-8
  EC50: 14 nM
[8]; read-out: EC50 IP-10
  EC50: 5 nM
[9]; read-out: EC50 MCP-1
  EC50: 109 nM
[10]; phosphorylation of p38, western blot, Table 4, read-out: IC50 p-p38
  IC50: 10 nM
[11]
  STAT1 phosphorylation levels: significantly reduced
[12]
  phosphorylation level of ERK: promoted
U937 cells
  CC50: 13600 nM
  maximum non-toxic concentration: 1 µM
U937 cells; [18]
  CC50: 13600 nM
U937 cells; U937 cells, Table 1 section H3N2
  CC50: 13600 nM
